From patent publication US20060276520A1 (priority 2002, published 2006)
Values joined by “and” are separate entries in the source; they are usually repeats but may differ in a detail not shown here. Identical values can stand only once.

What was measured:
APC2/APC11 = APC2/APC11 (Homo sapiens, UniProt Q9NYG5+Q9UJX6); test: biochemical
MDM2/P53 = MDM2/P53 (Homo sapiens, UniProt Q00987); test: biochemical
Chain of MDM2/P53 (Q00987 whole entry): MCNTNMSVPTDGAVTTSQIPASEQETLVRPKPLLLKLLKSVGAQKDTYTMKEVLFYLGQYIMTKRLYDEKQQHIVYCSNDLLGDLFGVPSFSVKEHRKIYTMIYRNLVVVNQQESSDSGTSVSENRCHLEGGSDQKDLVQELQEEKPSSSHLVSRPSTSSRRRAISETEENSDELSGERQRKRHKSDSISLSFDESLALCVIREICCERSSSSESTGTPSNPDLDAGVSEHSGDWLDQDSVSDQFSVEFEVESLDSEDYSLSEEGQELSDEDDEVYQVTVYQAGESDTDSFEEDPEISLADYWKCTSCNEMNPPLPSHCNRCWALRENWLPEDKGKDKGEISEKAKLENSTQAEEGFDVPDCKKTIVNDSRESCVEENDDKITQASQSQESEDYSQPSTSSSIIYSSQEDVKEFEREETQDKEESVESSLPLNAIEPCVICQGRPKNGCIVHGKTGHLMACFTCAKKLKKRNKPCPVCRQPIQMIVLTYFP

Chain of APC2/APC11 (Q9UJX6 whole entry): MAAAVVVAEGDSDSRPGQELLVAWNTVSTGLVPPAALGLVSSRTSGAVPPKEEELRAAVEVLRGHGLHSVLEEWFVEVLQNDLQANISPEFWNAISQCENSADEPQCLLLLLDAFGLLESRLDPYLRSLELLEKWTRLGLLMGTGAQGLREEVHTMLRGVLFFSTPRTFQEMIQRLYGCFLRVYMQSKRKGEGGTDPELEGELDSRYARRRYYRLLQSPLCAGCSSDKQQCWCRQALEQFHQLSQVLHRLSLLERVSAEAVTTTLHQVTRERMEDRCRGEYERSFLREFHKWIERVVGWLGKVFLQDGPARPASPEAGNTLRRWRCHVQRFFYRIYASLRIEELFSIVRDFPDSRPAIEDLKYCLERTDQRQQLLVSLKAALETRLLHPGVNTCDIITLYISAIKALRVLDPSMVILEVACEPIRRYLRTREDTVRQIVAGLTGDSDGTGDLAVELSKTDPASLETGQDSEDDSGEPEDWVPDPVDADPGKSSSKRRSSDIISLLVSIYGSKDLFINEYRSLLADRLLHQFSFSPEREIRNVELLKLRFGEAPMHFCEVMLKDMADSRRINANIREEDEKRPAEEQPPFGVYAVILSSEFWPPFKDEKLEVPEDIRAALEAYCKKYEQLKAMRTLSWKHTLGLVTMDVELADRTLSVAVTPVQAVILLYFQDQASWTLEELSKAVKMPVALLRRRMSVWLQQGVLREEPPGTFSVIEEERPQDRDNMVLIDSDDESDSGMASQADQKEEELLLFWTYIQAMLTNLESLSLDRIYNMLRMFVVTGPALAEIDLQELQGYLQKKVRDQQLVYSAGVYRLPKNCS
Chain of APC2/APC11 (Q9NYG5 whole entry): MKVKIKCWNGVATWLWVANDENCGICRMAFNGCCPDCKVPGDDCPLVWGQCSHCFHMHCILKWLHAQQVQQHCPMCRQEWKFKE

| Structure (SMILES) | IC50 (APC2/APC11) | IC50 (MDM2/P53) |
| --- | --- | --- |
| O=C1NC(=S)S/C1=C/c1ccc(-c2ccc(Cl)cc2)o1 [Compound 238, (5E)-5-{[5-(4-chlorophenyl)-2-furyl]methylene}-2-thioxo-1,3-thiazolidin-4-one] | 5000 nM | – |
| O=C(O)CCN1C(=O)/C(=C/c2ccc(-c3ccc(Br)cc3)o2)SC1=S [Compound 25, 3-((5Z)-5-{[5-(4-bromophenyl)-2-furyl]methylene}-4-oxo-2-thioxo-1,3-thiazolidin-3-yl)propanoic acid] | 2060 nM | 5640 nM |
| O=C(O)c1cccc(-c2ccc(/C=C3/SC(=S)N(c4cccc(Cl)c4)C3=O)o2)c1 [Compound 46, 3-(5-{(E)-[3-(3-chlorophenyl)-4-oxo-2-thioxo-1,3-thiazolidin-5-ylidene]methyl}-2-furyl)benzoic acid] | 910 nM | 4920 nM |
| O=C1NC(=S)S/C1=C/c1ccc(-c2cc(Cl)ccc2Cl)o1 [Compound 270, (5E)-5-{[5-(2,5-dichlorophenyl)-2-furyl]methylene}-2-thioxo-1,3-thiazolidin-4-one] | 3000 nM | – |
| NS(=O)(=O)c1ccc(-c2ccc(/C=C3\SC(=S)N(CCc4ccccc4)C3=O)o2)cc1 [Compound 103, 4-(5-{(Z)-[4-oxo-3-(2-phenylethyl)-2-thioxo-1,3-thiazolidin-5-ylidene]methyl}-2-furyl)benzenesulfonamide] | – | 3870 nM |
| COc1ccc(CN2C(=O)/C(=C/c3ccc(-c4ccccc4Cl)o3)SC2=S)cc1 [Compound 274, (5Z)-5-{[5-(2-chlorophenyl)-2-furyl]methylene}-3-(4-methoxybenzyl)-2-thioxo-11,3-thiazolidin-4-one] | 110 nM | 1180 nM |
| CN1C(=O)/C(=C\c2ccc(-c3cccc([N+](=O)[O-])c3)o2)SC1=S [Compound 183, (5E)-3-methyl-5-{[5-(3-nitrophenyl)-2-furyl]methylene}-2-thioxo-1,3-thiazolidin-4-one] | 100 nM | – |
| CCOc1ccc(N2C(=O)/C(=C\c3ccc(-c4ccc(Br)cc4)o3)SC2=S)cc1 [Compound 69, (5E)-5-{[5-(4-bromophenyl)-2-furyl]mthylene}-3-(4-ethoxyphenyl)-2-thioxo-1,3-thiazolidin-4-one] | – | 14200 nM |
| O=C1C(Cc2ccc(-c3ccccc3Cl)o2)SC(=S)N1Cc1ccc2c(c1)OCO2 (stereo not shown) [Compound 305, 3-(1,3-benzodioxol-5-ylmethyl)-5-{[5-(2-chlorophenyl)-2-furyl]methyl}-2-thioxo-1,3-thiazolidin-4-one] | – | 10800 nM |
| O=C(O)CN1C(=O)/C(=C\c2ccc(-c3ccc(Cl)c(Cl)c3)o2)SC1=S [Compound 82, ((5E)-5-{[5-(3,4-dichlorophenyl)-2-furyl]methylene}-4-oxo-2-thioxo-1,3-thiazolidin-3-yl)acetic acid] | 5000 nM | 1500 nM |
| O=C1/C(=C/c2ccc(-c3cccc([N+](=O)[O-])c3)o2)SC(=S)N1CC1CCCO1 (stereo not shown) [Compound 254, (5Z)-5-{[5-(3-nitrophenyl)-2-furyl]methylene}-3-(tetrahydrofuran-2-ylmethyl)-2-thioxo-1,3-thiazolidin-4-one] | – | 24800 nM |
| O=C1/C(=C/c2ccc(-c3ccccc3Cl)o2)SC(=S)N1CCc1cccs1 [Compound 275, (5Z)-5-{[5-(2-chlorophenyl)-2-furyl]methylene}-3-[2-(2-thienyl)ethyl]-2-thioxo-1,3-thiazolidin-4-one] | 320 nM | 1160 nM |
| O=C1/C(=C\c2ccc(-c3cccc(C(F)(F)F)c3)o2)SC(=S)N1Cc1ccccc1 [Compound 54, (5E)-3-benzyl-2-thioxo-5-({5-[3-(trifluoromethyl)phenyl]-2-furyl}methylene)-1,3-thiazolidin-4-one] | 35 nM | 74 nM |
| CN1C(=O)/C(=C\c2ccc(-c3cccc(Br)c3)o2)SC1=S [Compound 50, (5E)-5-{[5-(3-bromophenyl)-2-furyl]methylene]-3-methyl-2-thioxo-1,3-thiazolidin-4-one] | 3700 nM | 2690 nM |
| CN1C(=O)/C(=C/c2ccc(-c3cccc4ccccc34)o2)SC1=S [Compound 33, (5Z)-3-methyl-5-{[5-(1-naphtthyl)-2-furyl]methylene}-2-thioxo-1,3-thiazolidin-4-one] | – | 6100 nM |
| COc1ccc(N2C(=O)/C(=C\c3ccc(-c4ccc(Br)cc4)o3)SC2=S)cc1 [Compound 96, (5E)-5-{[5-(4-bromophenyl)-2-furyl]methylene}-3-(4-methoxyphenyl)-2-thioxo-1,3-thiazolidin-4-one] | 10000 nM | 560 nM |
| CN1C(=O)/C(=C/c2ccc(-c3ccc(S(N)(=O)=O)cc3)o2)SC1=S [Compound 23, 4-{5-[(Z)-(3-methyl-4-oxo-2-thioxo-1,3-thiazolidin-5-ylidene)methyl]-2-furyl}benzenezulffonamide] | 5150 nM | 7940 nM |
| O=C(O)CCN1C(=O)/C(=C/c2ccc(-c3ccc(Cl)cc3Cl)o2)SC1=S [Compound 77, 3-((5Z)-5-{[5-(2,4-dichlorophenyl)-2-furyl]methylene}-4-oxo-2-thioxo-1,3-thiazolidin-3-yl)propanoic acid] | – | 810 nM |

| Structure (SMILES) | IC50 (APC2/APC11) | IC50 (MDM2/P53) |
| --- | --- | --- |
| O=C1/C(=C/c2ccc(-c3cccc4ccccc34)o2)SC(=S)N1Cc1ccccc1 [Compound 30, (5Z)-3-benzyl-5-{[5-(1-nephthyl)-2-furyl]methylene}-2-thioxo-1,3-thiazolidin-4-one] | 5490 nM | 2320 nM |
| O=C1/C(=C\c2ccc(-c3ccccc3Cl)o2)SC(=S)N1C1CCS(=O)(=O)C1 (stereo not shown) [Compound 99, (5E)-5-{[5-(2-chlorophenyl)-2-furyl]methylene}-3-(1,1-dioxidotetrahydro-3-thienyl)-2-thioxo-1,3-thiazolidin-4-one] | – | 210 nM |
| O=C1/C(=C\c2ccc(-c3ccc([N+](=O)[O-])cc3)o2)SC(=S)N1CCc1ccccc1 [Compound 75, (5E)-5-{[5-(4-nitrophenyl)-2-furyl]methylene}-3-(2-phenylethyl)-2-thioxo-1,3-thiazolidin-4-one] | – | 13600 nM |
| CC(C)(C)OC(=O)[C@H](Cc1ccccc1)NC(=O)CN1C(=O)/C(=C/c2ccc(-c3ccccc3Cl)o2)SC1=S [Compound 301, tert-butyl N-[((5Z)-5-{[5-(2-chlorophenyl)-2-furyl]methylene}-4-oxo-2-thioxo-1,3-thiazolidin-3-yl)acetyl]phenylalaninate] | 410 nM | 930 nM |
| O=C(O)CN1C(=O)/C(=C\c2ccc(-c3ccc(Cl)cc3)o2)SC1=S [Compound 145, ((5E)-5-{[5-(4-chlorophenyl)-2-furyl]methylene}-4-oxo-2-thioxo-1,3-thiazolidin-3-yl)acetic acid] | 10000 nM | – |
| O=C1/C(=C/c2ccc(-c3ccccc3)o2)SC(=S)N1c1ccccc1 [Compound 28, (5Z)-3-phenyl-5-[(5-phenyl-2-furyl)methylene]-2-thioxo-1,3-thiazolidin-4-one] | – | 800 nM |
| O=C(O)c1cccc(-c2ccc(/C=C3\SC(=S)N(C4CCCCC4)C3=O)o2)c1 [Compound 176, 3-{5-[(Z)-(3-cyclohexyl-4-oxo-2-thioxo-1,3-thiazolidin-5-ylidene)methyl]-2-furyl}benzoic acid] | 400 nM and 700 nM | – |
| O=C(O)CCN1C(=O)/C(=C\c2ccc(-c3ccc(Cl)c(Cl)c3)o2)SC1=S [Compound 256, 3-((5E)-5-{[5-(3,4-dichlorophenyl)-2-furyl]methylene}-4-oxo-2-thioxo-1,3-thiazolidin-3-yl)propanoic acid] | – | 530 nM |
| O=C1/C(=C/c2ccc(-c3ccccc3Cl)o2)SC(=S)N1Cc1ccc2c(c1)OCO2 [Compound 299, (5Z)-3-(1,3-benzodioxol-5-ylmethyl)-5-{[5-(2-chlorophenyl)-2-furyl]methylene}-2-thioxo-1,3-thiazolidin-4-one] | – | 450 nM |
| C=CCN1C(=O)/C(=C\c2ccc(-c3cccc(C(F)(F)F)c3)o2)SC1=S [Compound 63, (5E)-3-allyl-2-thioxo-5-({5-[3-(trifluoromethyl)phenyl]-2-furyl}methylene)-1,3-thiazolidin-4-one] | 200 nM | – |
| O=C1/C(=C/c2ccc(-c3ccc(Br)cc3)o2)SC(=S)N1c1ccccc1 [Compound 27, (5Z)-5-{[5-(4-bromophenyl)-2-furyl]methylene}-3-phenyl-2-thioxo-1,3-thiazolidin-4-one] | – | 10700 nM |
| O=C1/C(=C/c2ccc(-c3ccc([N+](=O)[O-])cc3)o2)SC(=S)N1Cc1ccccc1 [Compound 199, (5Z)-3-benzyl-5-{[5-(4-nitrophenyl)-2-furyl]methylene}-2-thioxo-1,3-thiazolidin-4-one] | 100 nM | – |
| O=C1/C(=C\c2ccc(-c3cccc([N+](=O)[O-])c3)o2)SC(=S)N1Cc1ccccc1 [Compound 98, (5E)-3-benzyl-5-{[5-(3-nitrophenyl)-2-furyl]methylene}-2-thioxo-1,3-thiazolidin-4-one] | – | 11600 nM |
| O=C1/C(=C/c2ccc(-c3ccccc3Cl)o2)SC(=S)N1CCc1ccccn1 [Compound 278, (5Z)-5-{[5-(2-chlorophenyl)-2-furyl]methylene}-3-(2-pyridin-2-ylethyl)-2-thioxo-1,3-thiazolidin-4-one] | – | 5210 nM |
| O=C1/C(=C\c2ccc(-c3ccc(Cl)cc3)o2)SC(=S)N1C1CCS(=O)(=O)C1 (stereo not shown) [Compound 40, (5E)-5-{[5-(4-chlorophenyl)-2-furyl]methylene}-3-(1,1-dioxidotetrahydro-3-thienyl)-2-thioxo-1,3-thiazolidin-4-one] | – | 5520 nM |
| O=C(O)CN1C(=O)/C(=C\c2ccc(-c3cccc(C(F)(F)F)c3)o2)SC1=S [Compound 146, [(5E)-4-oxo-2-thioxo-5-({5-[3-(trifluoromethyl)phenyl]-2-furyl]methylene)-1,3-thiazolidin-3-yl]acetic acid] | 10000 nM | – |
| C[C@H](NC(=O)CN1C(=O)/C(=C/c2ccc(-c3ccccc3Cl)o2)SC1=S)C(=O)OC(C)(C)C [Compound 302, tert-butyl N-[((5Z)-5-{[5-(2-chlorophenyl)-2-furyl]methylene}-4-oxo-2-thioxo-1,3-thiazolidin-3-yl)acetyl]alaninate] | – | 4600 nM |
